# Measurements reported in patent publication US10472686B2, “Mechanisms of antimicrobial susceptibility” (Roche Molecular Systems, Inc., priority 2015, dated 2019).
# Key:
# NDM-1-expressing E. coli [1] = test: NRTP luciferase live cell reporter assay, NDM-1 detection (Example 1); format: cell-based; conditions: 2 hours at 37° C.; for luminescence signal (% RLU normalized to No Antibiotic): FIG. 2
# Protocol: An NDM-1 detection assay is produced using a luciferase-expressing non-replicative transduction particle specific to Enterobacteriaceae (as described in PCT/US2014/026536, Example 1), ertapenem, and the chelator Ethylenediaminetetraacetic acid (EDTA).
# A culture of a clinical isolate of an NDM-1-expressing E. coli was prepared in LB media and used to determine the response of the NRTP reporter in the presence of ertapenem, EDTA, and Zinc. The assay was prepared by mixing 50 μL of the cell culture at an OD600 of 0.02 to 50 μL of LB media and 100 μL of NRTP reagent prepared in a microwell plate. The assay was incubated for 2 hours at 37° C. under the following conditions: (1) No additives, (2) with the addition of ertapenem at 0.25 μg/mL, (3) with the addition of ertapenem and EDTA at 750 μg/mL, and (4) with the addition of ertapenem and Zinc sulfate at 70 μg/mL. After the incubation, the samples were assayed for luminescence after the injection of a nonanal reagent as a substrate for the live cell reporter using a Molecular Devices SpectraMax L luminometer.
# The luminescence readings were then normalized to those produced by sample (1) and plotted as a percentage relative to sample (1) as shown in FIG. 2.
# NDM-1-expressing E. coli [2] = format: cell-based; conditions: Smarticles assay, clinical isolates
# Protocol: (§1) Thus, the ability to quickly detect viable Gram-negative bacteria, determine their susceptibility to carbapenems, and distinguish between carbapenem resistance mechanisms could aid physicians in considering such therapeutic options in the future. […] In this study, a Smarticles™ assay was evaluated for its ability to detect carbapenem resistant E. coli and distinguish between NDM-1 and KPC-expressing organisms.
# (§2) Methods: 26 clinical isolates of E. coli, Klebsiella spp., Enterobacter spp., Citrobacter spp., Proteus spp., and S. marcescens were evaluated using the Smarticles™ assay and ertapenem disk diffusion. CRE isolates included organisms expressing blaKPC and blaNDM-1. The Smarticles™ assay was used with the addition of the chelating agent edetic acid (EDTA) and β-lactamase inhibitor boronic acid to scrutinize clinical isolates of E. coli expressing NDM-1 and KPC.
# KPC-expressing E. coli [3] = test: Smarticles live cell luminescence assay with inhibitors (Example 4); format: cell-based; conditions: clinical isolates
# Protocol: as §1, §2
# KPC-expressing E. coli [4] = test: NRTP luciferase live cell reporter assay, KPC detection (Example 2); format: cell-based; conditions: 2 hours at 37° C.
# Protocol: In another embodiment of the invention, a KPC detection assay is produced using a luciferase-expressing non-replicative transduction particle specific to Enterobacteriaceae as described in PCT/US2014/026536, Example 1, ertapenem and the β-lactamase inhibitor boronic acid.
# A culture of a clinical isolate of a KPC-expressing E. coli was prepared in LB media and used to determine the response of the NRTP reporter in the presence of ertapenem, and boronic acid. The replicates of the assay were prepared mixing 50 μL of the cell culture at an OD600 of 0.02 to 50 μL of LB media and 100 μL of NRTP reagent prepared in a microwell plate. The assay was incubated for 2 hours at 37° C. under the following conditions: (1) No additives, (2) with the addition of ertapenem at 1 μg/mL, and (3) with the addition of ertapenem and phenyl boronic acid 400 μg/mL. After the incubation, the samples were assayed for luminescence after the injection of a nonanal reagent as a substrate for the live cell reporter using a Molecular Devices SpectraMax L luminometer.
# The luminescence readings were then normalized to those produced by sample (1) and plotted as the average percentage relative to sample (1) as shown in FIG. 1.
# [5] = test system: Class A carbapenemases (e.g. KPC); conditions: background statement; cited from earlier work
# [6] = test system: Class B carbapenemases (e.g. NDM-1); conditions: background statement; cited from earlier work
smiles,measurement,setting,value
"O=C(O)CN(CCN(CC(=O)O)CC(=O)O)CC(=O)O [EDTA, Ethylenediaminetetraacetic acid]",luminescence signal (% RLU normalized to No Antibiotic),NDM-1-expressing E. coli [1]; ertapenem 0.25 μg/mL and EDTA 750 μg/mL,significantly decreased
same,assay signal in the presence of the inhibitor,NDM-1-expressing E. coli [2],inhibited
same,assay signal in the presence of the inhibitor,KPC-expressing E. coli [3],not inhibited
"OB(O)c1ccccc1 [boronic acid, phenyl boronic acid]",luminescence signal (% RLU normalized to No Antibiotic),KPC-expressing E. coli [4]; ertapenem 1 μg/mL and phenyl boronic acid 400 μg/mL,significantly decreased
same,assay signal in the presence of the inhibitor,NDM-1-expressing E. coli [2],not inhibited
same,assay signal in the presence of the inhibitor,KPC-expressing E. coli [3],inhibited
C[C@@H](O)[C@H]1C(=O)N2C(C(=O)O)=C(S[C@@H]3CN[C@H](C(=O)Nc4cccc(C(=O)O)c4)C3)[C@H](C)[C@H]12 [ertapenem],luminescence signal (% RLU normalized to No Antibiotic),NDM-1-expressing E. coli [1]; ertapenem 0.25 μg/mL alone,not significantly decreased
same,susceptibility phenotype,NDM-1-expressing E. coli [1]; ertapenem 0.25 μg/mL,non-susceptible
same,luminescence signal (% RLU normalized to No Antibiotic),KPC-expressing E. coli [4]; ertapenem 1 μg/mL alone,not significantly decreased
same,susceptibility phenotype,KPC-expressing E. coli [4]; ertapenem 1 μg/mL,non-susceptible
O=C(NC1CCNCC1)[C@@H]1CC[C@@H]2CN1C(=O)N2OS(=O)(=O)O [Relebactam],activity against Class A carbapenemases,[5],shown activity
same,activity against Class B carbapenemases,[6],not against
"O=S(=O)([O-])[O-].[Zn+2] [Zinc, Zinc sulfate]",luminescence signal (% RLU normalized to No Antibiotic),NDM-1-expressing E. coli [1]; ertapenem 0.25 μg/mL and Zinc sulfate 70 μg/mL,significantly increased
